Laboratory results from US20180099931A1 (AbbVie S.à.r.l., priority 2016, published 2018).
Where two headings read alike, the source gives them in different places.

Molecular target: T1, F508delCFTR (Homo sapiens, UniProt P13569, DEL508-508)
T1 construct: expressed in transfected cells; host or cells: CFBE41o- human lung-derived epithelial cells (CFBE4lo-F508delCFTR-HRP), doxycycline-inducible
Assay: Cell Surface Expression-Horse Radish Peroxidase (CSE-HRP) Assay;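 as to Maximum % activity (with co-corrector): co-corrector and positive control are both the same reference corrector at 2 µM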;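 as to Maximum % activity (without co-corrector): percent of the 2 µM on-plate positive control corrector response above DMSO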
Type: cell-based
Details: for Maximum % activity (with co-corrector) / Emax: maximum at any tested concentration, normalized to on-plate positive control; for Emax: read-out: Maximum % activity (without co-corrector)

[1] = test compound without co-corrector, read-out: EC50 (without co-corrector)
[2] = with co-corrector (2 μM of 3-[(2R,4R)-4-({[1-(2,2-difluoro-1,3-benzodioxol-5-yl)cyclopropyl]carbonyl}amino)-7-methoxy-3,4-dihydro-2H-chromen-2-yl]benzoic acid), read-out: EC50 (with co-corrector)
[3] = CSE-HRP, test compound without co-corrector, read-out: EC50 (without co-corrector)
[4] = CSE-HRP, with co-corrector (2 μM of 3-[(2R,4R)-4-({[1-(2,2-difluoro-1,3-benzodioxol-5-yl)cyclopropyl]carbonyl}amino)-7-methoxy-3,4-dihydro-2H-chromen-2-yl]benzoic acid), read-out: EC50 (with co-corrector)
[5] = CSE-HRP, with co-corrector (2 μM)
[6] = test compound without co-corrector
[7] = with co-corrector (2 μM of 3-[(2R,4R)-4-({[1-(2,2-difluoro-1,3-benzodioxol-5-yl)cyclopropyl]carbonyl}amino)-7-methoxy-3,4-dihydro-2H-chromen-2-yl]benzoic acid)

T1 sequence (P13569 with tags, fused parts or gaps DEL508-508): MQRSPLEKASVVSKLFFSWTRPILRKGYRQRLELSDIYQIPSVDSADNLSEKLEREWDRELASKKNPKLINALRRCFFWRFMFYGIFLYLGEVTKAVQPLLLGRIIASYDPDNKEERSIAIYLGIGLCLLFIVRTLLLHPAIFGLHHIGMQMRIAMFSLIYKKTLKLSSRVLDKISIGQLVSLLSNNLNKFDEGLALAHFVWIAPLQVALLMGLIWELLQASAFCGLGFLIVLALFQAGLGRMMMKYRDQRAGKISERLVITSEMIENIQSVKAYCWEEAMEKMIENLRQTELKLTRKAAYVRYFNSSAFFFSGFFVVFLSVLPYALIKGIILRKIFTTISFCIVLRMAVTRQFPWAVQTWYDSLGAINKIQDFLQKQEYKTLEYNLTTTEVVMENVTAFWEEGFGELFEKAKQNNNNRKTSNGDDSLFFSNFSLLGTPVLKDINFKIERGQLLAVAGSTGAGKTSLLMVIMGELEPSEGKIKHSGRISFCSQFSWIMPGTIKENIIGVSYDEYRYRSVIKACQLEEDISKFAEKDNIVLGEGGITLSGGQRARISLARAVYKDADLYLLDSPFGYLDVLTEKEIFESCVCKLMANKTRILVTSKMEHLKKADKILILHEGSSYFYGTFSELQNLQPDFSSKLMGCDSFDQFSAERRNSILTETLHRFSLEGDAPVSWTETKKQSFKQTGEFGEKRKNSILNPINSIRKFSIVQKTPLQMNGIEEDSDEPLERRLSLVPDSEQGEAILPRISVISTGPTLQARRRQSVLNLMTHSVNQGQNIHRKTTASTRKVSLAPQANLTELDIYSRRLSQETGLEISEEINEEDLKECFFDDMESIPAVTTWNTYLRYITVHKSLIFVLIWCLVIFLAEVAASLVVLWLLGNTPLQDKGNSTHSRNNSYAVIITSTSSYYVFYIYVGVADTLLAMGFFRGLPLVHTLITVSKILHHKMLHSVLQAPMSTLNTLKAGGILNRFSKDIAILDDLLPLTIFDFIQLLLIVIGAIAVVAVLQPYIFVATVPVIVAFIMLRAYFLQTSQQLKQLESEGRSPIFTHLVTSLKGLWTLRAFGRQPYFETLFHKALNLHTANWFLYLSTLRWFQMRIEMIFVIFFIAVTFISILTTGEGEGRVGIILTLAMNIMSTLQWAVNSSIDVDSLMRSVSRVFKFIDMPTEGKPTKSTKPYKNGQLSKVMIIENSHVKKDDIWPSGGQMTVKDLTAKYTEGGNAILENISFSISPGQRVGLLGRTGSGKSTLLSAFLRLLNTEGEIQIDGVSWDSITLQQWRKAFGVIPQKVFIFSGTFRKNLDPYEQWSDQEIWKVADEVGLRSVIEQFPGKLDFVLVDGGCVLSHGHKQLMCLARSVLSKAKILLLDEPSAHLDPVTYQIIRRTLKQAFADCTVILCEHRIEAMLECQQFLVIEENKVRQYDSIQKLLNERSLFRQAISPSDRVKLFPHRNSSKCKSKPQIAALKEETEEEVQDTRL

SMILES | EC50 [1] [µM] | EC50 [2] [µM] | Maximum % activity (with co-corrector) (with co-corrector (2 μM)) | Emax (without co-corrector) [%] | EC50 [3] [µM] | EC50 [4] [µM] | Maximum % activity (with co-corrector) [5] | Emax (CSE-HRP, without co-corrector) [%] | Emax [6] [%] | Maximum % activity (with co-corrector) [7]
COc1ccc(C(C)(C)C)cc1CN[C@H]1[C@H](C(C)(C)C)[C@@H](C(=O)O)N(C(=O)[C@H]2CCCCO2)[C@H]1c1ccccc1OC(F)F [Example 45, (2S,3S,4S,5S)-3-tert-butyl-4-{[(5-tert-butyl-2-methoxyphenyl)methyl]amino}-5-[2-(difluoromethoxy)phenyl]-1-[(2R)-oxane-2-carbonyl]pyrrolidine-2-carboxylic acid] | 1 to 10 | 1 to 10 | +++ (≥350) | 100 to 200 |  |  |  |  |  | 
COc1c(Cl)cccc1CN[C@@H]1[C@@H](C(C)(C)C)[C@H](C(=O)O)N(C(=O)C2CCCCC2)[C@@H]1c1ccccc1 (racemic) [II-7] |  |  |  |  | 1 to 10 | 1 to 10 | +++ (≥350) | < 100 |  | 
COc1ccc(C(C)(C)C)cc1CN[C@H]1[C@H](C(C)(C)C)[C@@H](C(=O)O)N(S(=O)(=O)c2ccccc2)[C@H]1c1ccccc1 [Example 15, (2S,3S,4S,5S)-1-(benzenesulfonyl)-3-tert-butyl-4-{[(5-tert-butyl-2-methoxyphenyl)methyl]amino}-5-phenylpyrrolidine-2-carboxylic acid] | 1 to 10 | 1 to 10 | +++ (≥350) | 100 to 200 |  |  |  |  |  | 
COc1ccc(C(F)(F)F)cc1CN[C@H]1[C@H](C(C)(C)C)[C@@H](C(=O)O)N(C(=O)[C@H]2OCC[C@H]2C(C)C)[C@H]1c1ccccc1 (relative stereo) [Example I-106] | 1 to 10 | 1 to 10 | +++ (≥350) | > 200 |  |  |  |  |  | 
Cc1ccc(C(F)(F)F)cc1CN[C@@H]1[C@@H](C(C)(C)C)[C@H](C(=O)O)N(C(=O)C2CCCCC2)[C@@H]1c1ccccc1 (racemic) [II-72] |  |  |  |  | < 1 | 1 to 10 | ++ (≥150 and <350) | < 100 |  | 
COc1nc(C(C)(C)C)ccc1CN[C@H]1[C@H](C(C)(C)C)[C@@H](C(=O)O)N(C(=O)[C@H]2CCCCO2)[C@H]1c1ccccc1 [Example 39, (2S,3S,4S,5S)-3-tert-butyl-4-{[(6-tert-butyl-2-methoxypyridin-3-yl)methyl]amino}-1-[(2R)-oxane-2-carbonyl]-5-phenylpyrrolidine-2-carboxylic acid] | 1 to 10 | 1 to 10 | +++ (≥350) | 100 to 200 |  |  |  |  |  | 
COc1ncc(C2CC3CCC2C3)cc1CN[C@H]1[C@H](C(C)(C)OC)[C@@H](C(=O)O)N(C(=O)C2CCCCC2)[C@H]1c1ccccc1 (stereo partly shown) [II-251] |  |  |  |  | < 1 | < 1 | +++ (≥350) | 100 to 200 |  | 
COc1ccc(C(C)(C)C)cc1CN[C@H]1[C@H](C(C)(C)C)[C@@H](C(=O)O)N(C(=O)CC2CCCC2(F)F)[C@H]1c1ccccc1 (stereo partly shown) [II-219] |  |  |  |  | 1 to 10 | < 1 | +++ (≥350) | > 200 |  | 
COc1ccc(C2(C)CCC2)cc1CN[C@H]1[C@H](C(C)(C)C)[C@@H](C(=O)O)N(C(=O)[C@@H]2CCCO2)[C@H]1c1ccccc1Br [Example I-295] |  |  |  |  | 1 to 10 | < 1 | +++ (≥350) | > 200 |  | 
COc1ccc(C(F)(F)F)cc1CN[C@H]1[C@H](C(C)(C)C)[C@@H](C(=O)O)N(C(=O)C2(S(C)(=O)=O)CC2)[C@H]1c1ccccc1 [III-137] | 1 to 10 | 1 to 10 | ++ (≥150 and <350) |  |  |  |  |  | < 100 | 
COc1ccc(C2(C(F)(F)F)CC2)nc1CN[C@H]1[C@H](C(C)(C)C)[C@@H](C(=O)O)N(C(=O)C2CCCCC2)[C@H]1c1ccccc1 [Example I-170] | 1 to 10 | 1 to 10 | +++ (≥350) | < 100 |  |  |  |  |  | 
COc1ncc(C2CCC2)cc1CN[C@H]1[C@H](C(C)(C)C)[C@@H](C(=O)O)N(C(=O)[C@H]2CCC[C@@H](C(F)(F)F)C2)[C@H]1c1ccccc1 (relative stereo) [Example I-260] |  |  |  |  | 1 to 10 | 1 to 10 | ++ (≥150 and <350) | < 100 |  | 
Cc1cc(C(F)(F)F)cc(N[C@H]2[C@H](C(C)(C)C)[C@@H](C(=O)O)N(C(=O)C3CCCC(F)(F)C3)[C@H]2c2cccnc2N(C)C)n1 (stereo partly shown) [II-503] | 1 to 10 | 1 to 10 |  |  |  |  |  |  | < 100 | +++ (≥350)
COc1ccc(-c2cnccc2C)cc1CN[C@H]1[C@H](C(C)(C)C)[C@@H](C(=O)O)N(C(=O)C2CCCCC2)[C@H]1c1ccccc1 [II-280] |  |  |  |  | 1 to 10 | 1 to 10 | +++ (≥350) | < 100 |  | 
COc1cc(C(F)(F)F)ccc1CN[C@@H]1[C@@H](C(C)(C)C)[C@H](C(=O)O)N(C(=O)OC2CCC2)[C@@H]1c1ccccc1 (racemic) [III-114] | 1 to 10 | 1 to 10 | +++ (≥350) |  |  |  |  |  | 100 to 200 | 
CO[C@H](C(=O)N1[C@H](C(=O)O)[C@@H](C(C)(C)C)[C@H](Nc2cc(C(F)(F)F)cc(C)n2)[C@@H]1c1ccccc1)c1ccccc1 [III-103] | > 10 | 1 to 10 | + (<150) |  |  |  |  |  | < 100 | 
CC(C)Oc1ccc(Cl)cc1CN[C@H]1[C@H](C(C)(C)C)[C@@H](C(=O)O)N(C(=O)C2CCCCC2)[C@H]1c1ccccc1 [III-124] | 1 to 10 | < 1 | +++ (≥350) |  |  |  |  |  | < 100 | 
COc1ncc(C(F)(F)F)cc1CN[C@@H]1[C@@H](C(C)(C)C)[C@H](C(=O)O)N(C(=O)C2CCCCC2)[C@@H]1c1cccnc1N(C)C (racemic) [II-52] |  |  |  |  | 1 to 10 | 1 to 10 | +++ (≥350) | 100 to 200 |  | 
COc1cccc(-c2ccc(OC)c(CN[C@H]3[C@H](C(C)(C)C)[C@@H](C(=O)O)N(C(=O)C4CCCCC4)[C@H]3c3ccccc3)c2)c1 [II-277] |  |  |  |  | 1 to 10 | < 1 | +++ (≥350) | > 200 |  | 
COc1ccc(C(C)(C)C)cc1CN[C@H]1[C@H](C(C)(C)C)[C@@H](C(=O)O)N(C(=O)C2CCCCC2)[C@H]1c1cccn(C)c1=O (racemic) [Example III-228, rac-(2S,3S,4S,5S)-3-tert-butyl-4-{[(5-tert-butyl-2-methoxyphenyl)methyl]amino}-1-(cyclohexanecarbonyl)-5-(1-methyl-2-oxo-1,2-dihydropyridin-3-yl)pyrrolidine-2-carboxylic acid] | > 10 | > 10 | + (<150) |  |  |  |  |  | < 100 | 
COc1ccc(C(C)(C)C)cc1CN[C@H]1[C@H](C(C)(C)C)[C@@H](C(=O)O)N(C(=O)CC2CCOCC2)[C@H]1c1ccccc1 [II-162] |  |  |  |  | 1 to 10 | 1 to 10 | +++ (≥350) | 100 to 200 |  | 
COc1ccc(C(F)(F)F)cc1CN[C@@H]1[C@@H](C(C)(C)C)[C@@H](C(=O)O)N(C(=O)[C@H](OC)c2ccccc2)[C@H]1c1ccccc1 [II-395] | 1 to 10 | 1 to 10 |  |  |  |  |  |  | < 100 | ++ (≥150 and <350)
